Reference: ChEMBL document CHEMBL5143536, “Dihydroartemisinin improves hypercholesterolemia in ovariectomized mice via enhancing vectorial transport of cholesterol and bile acids from blood to bile” (Bioorg Med Chem, 2022)
Active and inactive are the calls of the source.

Assays:
Assay type in all cases: functional, organism-based
[1] = system: Mus musculus; test: Hypocholesterolemic activity in OVX-induced C57BL/6 mouse model assessed as increase in CD36 protein expression in liver at 150 mg/kg, ig for 4 weeks by western blot analysis
[2] = system: Mus musculus; test: Hypocholesterolemic activity in OVX-induced C57BL/6 mouse model assessed as increase in Abcb1a mRNA expression in liver in liver at 150 mg/kg, ig for 4 weeks by qRT-PCR analysis
[3] = system: Mus musculus; test: Hypocholesterolemic activity in OVX-induced C57BL/6 mouse model assessed as increase in Scd1 mRNA expression in liver at 150 mg/kg, ig for 4 weeks by qRT-PCR analysis
[4] = system: Mus musculus; test: Hypocholesterolemic activity in OVX-induced C57BL/6 mouse model assessed as increase in Abcg8 mRNA expression in liver in liver at 150 mg/kg, ig for 4 weeks by qRT-PCR analysis
[5] = system: Mus musculus; test: Hypocholesterolemic activity in OVX-induced C57BL/6 mouse model assessed as increase in Abcb4 mRNA expression in liver in liver at 150 mg/kg, ig for 4 weeks by qRT-PCR analysis
[6] = system: Mus musculus; test: Hypocholesterolemic activity in OVX-induced C57BL/6 mouse model assessed as increase in Abcg5 mRNA expression in liver in liver at 150 mg/kg, ig for 4 weeks by qRT-PCR analysis
[7] = system: Mus musculus; test: Hypocholesterolemic activity in OVX-induced C57BL/6 mouse model assessed as increase in Abcg8 protein expression in liver in liver at 150 mg/kg, ig for 4 weeks by western blot analysis
[8] = system: Mus musculus; test: Hypocholesterolemic activity in OVX-induced C57BL/6 mouse model assessed as decrease in LDL-C concentration in serum at 150 mg/kg, ig for 4 weeks
[9] = system: Mus musculus; test: Hypocholesterolemic activity in OVX-induced C57BL/6 mouse model assessed as increase in HDL-C concentration in serum at 150 mg/kg, ig for 4 weeks
[10] = system: Mus musculus; test: Hypocholesterolemic activity in OVX-induced C57BL/6 mouse model assessed as increase in Fasn protein expression in liver at 150 mg/kg, ig for 4 weeks by western blot analysis
[11] = system: Mus musculus; test: Hypocholesterolemic activity in OVX-induced C57BL/6 mouse model assessed as increase in ACACa protein expression in liver at 150 mg/kg, ig for 4 weeks by western blot analysis
[12] = system: Mus musculus; test: Hypocholesterolemic activity in OVX-induced C57BL/6 mouse model assessed as decrease in Slc10a2 mRNA expression in Ileum at 150 mg/kg, ig for 4 weeks by qRT-PCR analysis
[13] = system: Mus musculus; test: Hypocholesterolemic activity in OVX-induced C57BL/6 mouse model assessed as increase in Abcg5 protein expression in liver in liver at 150 mg/kg, ig for 4 weeks by western blot analysis
[14] = system: Mus musculus; test: Hypocholesterolemic activity in OVX-induced C57BL/6 mouse model assessed as increase in Slc10a1 mRNA expression in liver in liver at 150 mg/kg, ig for 4 weeks by qRT-PCR analysis
[15] = system: Mus musculus; test: Hypocholesterolemic activity in OVX-induced C57BL/6 mouse model assessed as decrease in size of lipid droplet concentration in […] at 150 mg/kg, ig for 4 weeks by H and E staining based assay; details: Liver
[16] = system: Mus musculus; test: Hypocholesterolemic activity in OVX-induced C57BL/6 mouse model assessed as increase in Elovl6 mRNA expression in liver at 150 mg/kg, ig for 4 weeks by qRT-PCR analysis
[17] = system: Mus musculus; test: Hypocholesterolemic activity in OVX-induced C57BL/6 mouse model assessed as increase in SCD1 protein expression in liver at 150 mg/kg, ig for 4 weeks by western blot analysis
[18] = system: Mus musculus; test: Hypocholesterolemic activity in OVX-induced C57BL/6 mouse model assessed as decrease in number of lipid droplet concentration in liver at 150 mg/kg, ig for 4 weeks by H and E staining based assay
[19] = system: Mus musculus; test: Hypocholesterolemic activity in OVX-induced C57BL/6 mouse model assessed as decrease in Fabp6 mRNA expression in Ileum […] at 150 mg/kg, ig for 4 weeks by qRT-PCR analysis
[20] = system: Mus musculus; test: Hypocholesterolemic activity in OVX-induced C57BL/6 mouse model assessed as increase in Elovl5 mRNA expression in liver at 150 mg/kg, ig for 4 weeks by qRT-PCR analysis
[21] = system: Mus musculus; test: Hypocholesterolemic activity in OVX-induced C57BL/6 mouse model assessed as increase in Cyp7b1 mRNA expression in liver in liver at 150 mg/kg, ig for 4 weeks by qRT-PCR analysis
[22] = system: Mus musculus; test: Hypocholesterolemic activity in OVX-induced C57BL/6 mouse model assessed as increase in Fasn mRNA expression in liver at 150 mg/kg, ig for 4 weeks by qRT-PCR analysis
[23] = system: Mus musculus; test: Hypocholesterolemic activity in OVX-induced C57BL/6 mouse model assessed as decrease in TC concentration in serum at 150 mg/kg, ig for 4 weeks
[24] = system: Mus musculus; test: Hypocholesterolemic activity in OVX-induced C57BL/6 mouse model assessed as increase in CD36 mRNA expression in liver at 150 mg/kg, ig for 4 weeks by qRT-PCR analysis
[25] = system: Mus musculus; test: Hypocholesterolemic activity in OVX-induced C57BL/6 mouse model assessed as increase in Slcob2 mRNA expression in liver in liver at 150 mg/kg, ig for 4 weeks by qRT-PCR analysis

Measured: Activity

C[C@H]1[C@@H](O)O[C@@H]2O[C@@]3(C)CC[C@H]4[C@H](C)CC[C@@H]1[C@@]24OO3
active: [1] | [2] | [3] | [4] | [5] | [6] | [7] | [8] | [9] | [10] | [11] | [12] | [13] | [14] | [15] | [16] | [17] | [18] | [19] | [20] | [21] | [22] | [23] | [24] | [25]
